Experimental data: patent US9532994B2, “Agents and methods for enhancing bone formation by oxysterols in combination with bone morphogenic proteins” (THE REGENTS OF THE UNIVERSITY OF CALIFORNIA, priority 2003, dated 2017)

What was measured:
ERK1 = test: Western blot for pERK or ERK in M2 cells; format: cell-based, mouse; settings: 5 μM 20S for 1, 4, or 8 hours (FIG. 10A)
Protocol: (§1) Western blot analysis—After treatments, cells were lysed in lysis buffer, protein concentrations determined using the Bio-Rad protein assay (Hercules, Calif. U.S.A.), and SDS-PAGE performed as previously described. Probing for native and phosphorylated ERKs was performed as previously reported.
(§2) (A) M2 cells at confluence were pretreated for four hours with RPMI containing 1% FBS, followed by treatment with control vehicle or 5 μM 20S oxysterol for 1, 4, or 8 hours. Next total cell extracts were prepared and analyzed for levels of native or phosphorylated ERK (pERK) using specific antibodies as previously described. Data from a representative of four experiments are shown, each treatment shown in duplicate samples. (B) M2 cells at confluence were pretreated for 2 hours with control vehicle (C) or 20 μM PD98059 (PD) in osteogenic medium as previously described. Next, a combination of 22R and 20S oxysterols (RS, 5 μM each) were added to appropriate wells as indicated. After 10 days of incubation, matrix mineralization was quantified by the ^45Ca incorporation assay as previously described. Data from a representative of three experiments are reported as the mean±SD of quadruplicate determinations, normalized to protein concentration (p<0.01 for RS vs. RS+PD). […] After 10 days, adipocytes were visualized by oil Red O staining and quantified by light microscopy as previously described. […]

ERK2 = test: Western blot for pERK or ERK in M2 cells; format: cell-based, mouse; settings: 5 μM 20S for 1, 4, or 8 hours (FIG. 10A)
Protocol: as §1, §2

CC(C)CCC[C@](C)(O)[C@H]1CC[C@H]2[C@@H]3CC=C4C[C@@H](O)CC[C@]4(C)[C@H]3CC[C@@]21C [20S, 20(S)-hydroxycholesterol]
activation of ERK1 (ERK1): sustained activation | activation of ERK2 (ERK2): sustained activation
